Results on two molecules are retold here after patent US7553826B2, “Cytarabine monophosphate prodrugs” (Metabasis Therapeutics, Inc., priority 2002, dated 2009).

As usually defined, the AUC(0-t) is the area under the concentration-time curve up to a stated or last time point. For orientation: solubility means the dissolved amount per volume that the medium holds. High values mean a readily soluble substance, low ones a poorly soluble substance. What is called Vmax is the rate approached at saturating substrate. For orientation: Km means the concentration of substrate that gives half-maximal velocity.

Data set [1] is described as follows: Liver araCTP and liver targeting with continuous i.v. infusion in rats. An excerpt:
A saline filled blunt PE-50 tubing catheter (Intramedic, Becton Dickinson, Sparks, Md.) was inserted into the jugular vein, exteriorized between the scapulae and connected to a swivel-tethering constant infusion system (Lomir Biomedical, Inc., Malone, N.Y. and Harvard Apparatus, Inc., South Natick, Mass.). The tubing was filled with heparinized saline and sealed, and the animals allowed to recover for one to seven days.
After the various durations of infusion the animals were anesthetized by intra-catheter injections of the anesthetic mix described above. Blood samples were obtained via cardiac puncture using a 23-gauge needle attached to a heparin coated 3 cc syringe.
(§1) In those studies, liver, plasma and bone marrow samples were obtained at necropsy to evaluate liver targeting.
(§2) Results are expressed as mean±standard error of the mean. When appropriate, AUC was calculated from time zero to the last time-point of the study. Liver targeting indices (LTIs) were calculated by dividing the liver araCTP AUC by the AUC for plasma araC (plasma LTI) or by the AUC for bone marrow araCTP (bone marrow LTI) for each compound. For the continuous infusion studies, the steady state araCTP levels were divided by the steady state plasma araC levels.

Data set [2] can be described thus: Mouse 5-day safety pharmacology. It is filed as in vivo. The conditions noted are these: mice. The method, then:
AraC was purchased from Sigma Chemical Co. (St. Louis, Mo., catalog # C1768, lot # 39H5962). Compound C and araC were dissolved in sterile physiological saline. Stock solutions were prepared daily from pre-weighed drug. All but the highest concentrations were prepared by diluting the stock solutions using additional sterile saline. Any drug not used immediately was refrigerated and used within 24 hours. All prodrugs were dosed in cytarabine molar equivalents (CE).
Male NIH Swiss Webster mice (25 to 33 g body weight, Harlan Sprague Dawley, Indianapolis, Ind.) were injected i.p. with Compound C, araC or vehicle once a day on days 0-4, approximately 3 to 4 hours following the beginning of the vivarium light cycle. Doses for Compound C were 1000, 300, 100 and 30-mg/kg nucleoside equivalents/day (equal to 1848, 554, 185 and 55.4 mg/kg/day) whereas araC was administered at 100, 30, 10 and 3 mg/kg/day. The vehicle was saline. Body weights were recorded on days 0-4 immediately prior to compound administration and on day 5 prior to sacrifice. All mice were sacrificed on day 5 (23-25 hours following the last i.p. dose) by exsanguination under halothane anesthesia, and subsequent cervical dislocation. The blood from each animal was analyzed for blood chemistry and hematology parameters as described in Example H. Livers were excised and fixed in neutral-buffered 10% formalin, and bone marrow was flushed from the right femur using 1 ml PBS without calcium or magnesium and nucleated cell counts measured as in Example H.
EDTA-treated blood samples were submitted to LabCorp (LabCorp, San Diego, Calif.) for hematology analysis including erythrocyte and platelet numbers, hemoglobin, and hematocrit. Serum chemistry analysis was also performed by LabCorp. Tissue specimens from mice treated with vehicle or 100 mg/kg araC or 1000 mg/kg CE Compound C were coded and shipped in formalin to Comparative Biosciences (Mountain View, Calif.) for preparation of hematoxylin/eosin-stained tissue sections and histopathology evaluation. Specimen codes for the histopathology studies were: #1-7, Compound C 1000 mg/kg/day; #33-40, araC 100 mg/kg/day; #65-72, Saline vehicle.
Results are expressed as mean±standard error for 5-8 animals per dose group. For selected hematology parameters, data for each animal were also presented as a % of the mean of the vehicle group. Statistical analysis was performed by one-way ANOVA followed by Dunnett's post-hoc test for differences between a control group and multiple dose groups. A p-value of less than 0.05 was considered statistically significant.

Data set [3] can be described thus: Single dose i.p. bolus liver levels / liver targeting in mice. The method, then:
At specified times post injection, mice were anesthetized and exsanguinated via cardiac puncture. The whole liver was removed, and snap-frozen in liquid nitrogen, and homogenized using a Polytron homogenizer PT 10/35 (Brinkmann Instruments, Westbury, N.Y.) in 3 volumes of 10% (v/v) perchloric acid (PCA). After a 5 min centrifugation at 2,500×g, 1 mL of supernatant was neutralized using 0.3 mL 3 M KOH/3 M KHCO3 and mixed thoroughly. Samples were then centrifuged for 5 minutes and resulting supernatants were treated with periodate in order to remove endogenous ribonucleotides which otherwise might interfere with araCTP detection. […] Resulting samples were analyzed by HPLC as described below.
To measure bone marrow araCTP, the bone marrow samples were flushed from the marrow cavities of femurs with 1.2 ml saline into pre-weighed Eppendorf tubes. After centrifugation for 20-30 seconds (Eppendorf microfuge, 14,000 rpm) and removal of the supernatant, 12 volumes of 3% PCA (v/v) were added to the bone marrow cell pellets. Samples were then vortexed until the pellet was well dissolved and centrifuged as above for 10 min. Ninety μL of extracted supernatant was neutralized to pH 7-8 using 30 μL 1 M KOH/1 M KHCO3 and again centrifuged. Resulting supernatants were periodate-treated as above.
Samples (50 μL) were injected onto the column in 70% 10 mM ammonium phosphate buffer and 30% 1 M ammonium phosphate buffer, both at pH 3.5 and containing 6% ethanol. […] A standard curve was prepared by adding known amounts of araCTP into PCA extracts from control liver or bone marrow prior to neutralizing, and preparing HPLC samples accordingly.
To obtain plasma, blood was transferred to heparinized micro-collection tubes and centrifuged in an Eppendorf microfuge at 14,000 rpm for 2 minutes. Resulting plasma was collected, placed on dry ice, and subsequently stored at −20° C. On the day of analysis, proteins were precipitated by adding 1 mL acetonitrile to 100 μL of plasma. After 10 min centrifugation (Eppendorf microfuge, 14,000 rpm), the supernatant was removed and dried in a Savant SpeedVac Plus SC110A. Samples were reconstituted with 110 μL of mobile phase buffer (20 mM KH2PO4, pH 4.5), sonicated for 5 min, and centrifuged for 30 seconds. […] AraC and prodrugs were detected by absorbance at 280 nm and quantitated using standard curves obtained with spiked plasma samples processed as above.
Results are expressed as mean±standard error of the mean. Data were analyzed by repeated measures ANOVA, followed by the Tukey HSD post-hoc test for comparisons at individual time points when appropriate. A p-value of less than 0.05 was considered statistically significant. Dotted lines in figures indicate LOQ (limit of quantitation) using the indicated HPLC method.
as §1, §2

The next data set is described as follows: Aqueous stability. It is filed as physicochemical. To be noted: 50 μM. The method, then: Diluted solutions (50 μM) were incubated at 37° C. in a Fisher Scientific dry bath incubator (catalog # 11-718-2) with samples collected every 24 hours and stored at −80° C. Plasma samples (100 μL) were quenched with 1 mL of acetonitrile. […] Samples were resuspended in 120 μL of mobile phase buffer before HPLC injection.
Samples were analyzed on an HP1090 or HP1100 (Hewlett Packard) HPLC using a C-18 Alltech Econosphere column, 150 mm×4.6 mm (catalog # 70065), with a C-18 Alltech Econosphere guard column, 7.5 mm×4.6 mm (catalog # 96121). Samples were eluted with a methanol gradient: 0% for 5 minutes, then increasing to 10% at 10 minutes, 30% at 20 minutes, and 60% at 25 minutes. The column was allowed to equilibrate in 0% methanol for 10 minutes before the next injection. The flow rate was 1 mL/minute with a column temperature of 40° C. Prodrugs eluted around 19.5 minutes and were monitored by UV absorbance at 280 nm. For prodrugs in aqueous conditions, the same method was employed except the methanol gradient was as follows: 0% for 5 minutes, increasing to 10% at 10 minutes, and 30% at 20 minutes with prodrug eluting around 20 minutes.

A further data set is described as follows: Solubility. The format is physicochemical. As to the method:
With each of the three buffer systems, saturating solutions of Compound A and Compound B were prepared as follows. […] The resultant vials were sealed and equilibrated by tumbling at 25° C. for a minimum of 24 h. At the end of the incubation period, prodrug that was not in solution was removed from the samples by filtration through a 0.45 μm pore size nylon syringe filter. These diluted samples were assayed by the HPLC method of example E.

The next data set deals with human liver microsomes. Description: Enzyme kinetics of prodrug activation to araCMP in human liver microsomes. To be noted: activation to araCMP. (In general: Liver microsomes are vesicles of endoplasmic reticulum, rich in cytochrome P450 enzymes.)
Setting [4] is: rats, 200 mg CE/kg/day continuous intravenous infusion.

SMILES strings stand for the structures. Converted amounts (≈) assume the structure as drawn. Where only a bound is given, the exact number is not on record here.

`Nc1ccn([C@@H]2O[C@H](CO)[C@@H](O)[C@@H]2O)c(=O)n1` [AraC, 1-(β-D-Arabinofuranosyl)cytosine]: the “Plasma araC steady state” value in data set [1] (rats, AraC at 2000 mg/kg/day continuous infusion) is roughly 300 µM. Also, the “histopathology of liver, kidney and small intestine” value in data set [2] (100 mg/kg araC or 1000 mg/kg CE Compound C) was “no toxicologically relevant histopathologic changes”. The hepatotoxicity entry in data set [2] (5-day repeated dose) was “No hepatotoxicity was observed”. For the same molecule, the “number of nucleated bone marrow cells, circulating PMNs, mononuclear cells, and platelets” value in data set [2] (30 and 100 mg/kg/day i.p. for 5 days) is reported as “significantly decreased”. Further, the “red blood cell parameters (erythrocyte numbers, hematocrit, hemoglobin)” value in data set [2] (5 days i.p., araC 30 and 100 mg/kg/day) was “lowered erythrocyte numbers, hematocrit, and hemoglobin significantly”. The Creatinine entry in data set [2] (araC 100 mg/kg/day) is “lowered”. Moreover, the “bone-marrow cellularity, % of that in vehicle-treated animals” value in data set [2] (araC 100 mg/kg/day i.p. for 5 days) came to 11%. For the same molecule, the “effect on body weight” value in data set [2] (daily i.p. 5 days, highest dose: araC 100 mg/kg/day, Compound C 1000 mg/kg/day of nucleoside equivalents) was “progressive and statistically significant drop in body weight”. For the same molecule, the Alkaline phosphatase entry in data set [2] (highest dose of araC (100 mg/kg/day)) is given as “significantly decreased”. The Glucose entry in data set [2] (araC 30 and 100 mg/kg/day, Compound C 1000 mg/kg/day) is given as “lowered”. Moreover, the AUC(0-t) in data set [3] (male, Swiss Webster, mouse, plasma, ip, 100 mg (cytarabine equivalents)/kg) was determined as 121 µM·h.

As for `Nc1ccn([C@@H]2O[C@H](CO[P@]3(=O)OCC[C@H](c4ccncc4)O3)[C@@H](O)[C@@H]2O)c(=O)n1` [Compound B, 2(1H)-Pyrimidinone, 4-amino-1-[5-O-[(2S,4R)-2-oxido-4-(4-pyridinyl)-1,3,2-dioxaphosphorinan-2-yl]-β-D-arabinofuranosyl]], the “t90 in aqueous solution” value in “Aqueous stability” (100 mM Pi, pH 7.4, 37° C) is reported as 4 days; in the data set “Aqueous stability” (100 mM citrate, pH5.0, 37° C) it was 1.7 days. For the same molecule, the results for the “reduction of peripheral exposure (liver targeting)” value in data set [1] (administered by continuous intravenous infusion) and in data set [3] (administered intraperitoneally) were roughly 10 fold and roughly 20 fold, respectively. The “LTI @ 24 hrs (Liver/plasma)” value in data set [1] (setting [4]) is listed as greater than 12 nmol/g/μM. In addition, the “Liver araCTP 24 hr” value in data set [1] (setting [4]) is recorded as 5.9 nmol/g. Also, the “Liver araCTP @ 4 hr” value in data set [1] (setting [4]) was found to be 6.4 nmol/g. Moreover, the “Plasma Prodrug steady state” value in data set [1] (setting [4]) is 25 to 35 µM. Besides, the “Plasma araC steady state” value in data set [1] (setting [4]) was less than 0.5 µM. Further, in data set [1] (rats, continuous infusion 200 mg/kg/24 hours CE), the “liver araCTP compared with Compound A” value was “less araCTP in the liver than Compound A”. The “Liver araCTP Peak @ 1 hr” value in data set [3] (Mouse, 100 mg (cytarabine equivalents)/kg single IP injection) is 27 nmol/g. Also, in data set [3] (Mouse, 100 mg CE/kg single IP, liver araCTP AUC / plasma araC AUC), the “LTI (Liver/plasma)” value was 19.6 nmol/g/μM. Further, the “liver araCTP peak at 60 minutes post injection” value in data set [3] (mice, single i.p. bolus, 100 mg/kg CE) was found to be 27.00 ± 4.04 nmol/g. Moreover, the solubility in the data set “Solubility” (0.5 M Pi pH 8.0 buffer, 25° C) is 10.2 mg/mL (≈ 23.2 mM); in “Solubility” (0.5 M citrate pH 4.0, 25° C) it was 94.6 mg/mL (≈ 215 mM); in the data set “Solubility” (0.5 M citrate pH 7.0, 25° C) it was 9.0 mg/mL (≈ 20.4 mM). The Vmax with human liver microsomes (2 mg/mL human liver microsomes lot RQX, 1 mM NADPH, pH 7.4, 37° C, 5 min) is given as 0.13 ± 0.02 nmol/min/mg. For the same molecule, the Km in the data set on human liver microsomes (human liver microsomes lot RQX) turned out to be 3.13 ± 0.51 mM.
